The text below walks through data of patent US6762188B1, “Pharmaceutically active benzoquinazoline compounds” (SmithKline Beecham Corporation, priority 1990, dated 2004).

Data set [1] relates to SW480 human colon adenocarcinoma. The data set can be described thus: Tumor cell culture cytotoxicity (MTT dye reduction), SW480. In general terms: Tetrazolium assays rely on reduction of a dye to a coloured formazan, in cell work by metabolically active cells.
Protocol: SW480 and WiDr colon adenocarcinomas, MCF-7 breast adenocarcinoma, A427 lung carcinoma and MOLT-4 T-cell leukemia were used for the primary screening of compounds. […] MCF-7, A427 and SW480 were grown in the above medium further supplemented with sodium pyruvate.
(§1) Cells are seeded into 96-well plates using a Perkin-Elmer Pro/pette. SW480 and A427 were seeded at 8,000 cells per well, MCF-7 at 10,000, Widr at 7500, and MOLT-4 at 12,500 cells per well, all in 150 µl of medium. Prior to the addition of drugs, cultures were incubated for 24 hrs at 37°. Compounds were added at 2×concentration in 150 l of medium and each concentration was assayed in triplicate. If DMSO or ethanol were used to solubilize compounds, appropriate controls were run if the concentration exceeded 0.01%. Cultures were incubated for 72 hours (96 hours for SW480 and MCF-7) in a 37° humidified incubator at 5% CO2. Inhibition of cell growth was measured using the MTT dye reduction assay.
(§2) Cell dilutions for a standard curve were prepared from a 72 hour log-phase culture. Serial dilutions were seeded in triplicate in 96-well plates and incubated at 37 degrees for one hour. MTT (3-(4,5-dimethylthiazol-2-yl)-2,5-diphenyltetrazolium bromide) was dissolved in PBS at 5 mg/ml and sonicated for 30 seconds. Using the Perkin Elmer Pro/pette, 200 μl of medium was removed and 100 μl of MTT added to the wells of the standard curve and test plates. Suspension cultures were spun for 5 min at 1000 rpm before removing medium from the wells. Plates were incubated for 1 hour at 370 on a platform shaker. Following this incubation 100 ml of medium was removed from the wells and 100 μl of DMSO added to each well. The plates were sonicated for approximately 10 seconds to solubilize the precipitated formazan dye. The absorbance of each well was measured using a Titertek Multiscan MC microtiter plate reader at 570 nm with a reference wavelength of 750 nm. Data was collected using a Mariachi Seed-2 and stored and analyzed using an IBM-AT and Lotus 1-2-3 software.
Data set [2] has as its target T1, Mammalian Thymidylate Synthase (Homo sapiens, UniProt P04818).
T1 construct: made in house; host or cells: Escherichia coli
The experiment in a line: Thymidylate synthase inhibition, tritium release assay. It is filed as biochemical.

A short description of data set [3]: Cell culture cytotoxicity, L cells. It is filed as cell-based. Particulars: mouse, L fibroblast cell line; Table C, 5,6-dihydro 3-amino derivatives; read-out: Tumor Cell Culture Cytotoxicity IC50 Other (L).
Protocol: as §1, §2
The mark [4] stands for this setting: Homo sapiens, SW480, read-out: Tumor Cell Culture Cytotoxicity IC50 SW480, Table E, fully aromatic 3-methyl derivatives.
The mark [5] stands for this setting: Homo sapiens, SW480, read-out: Tumor Cell Culture Cytotoxicity IC50 SW480, Table B, fully aromatic 3-amino derivatives.
Setting [6] is: Homo sapiens, SW480, read-out: Cell Culture Cytotoxicity CCCT SW-480, Table F, fully aromatic p-aminobenzoylglutamates.
[7] abbreviates: Homo sapiens, SW480, read-out: Cell Culture Cytotoxicity CCCT SW-480, Table G, dihydrobenzoquinazoline p-aminobenzoylglutamates.

Like-named read-outs stand apart in the source and are kept apart here. Bounds are passed on as bounds.

T1 sequence (P04818 whole entry): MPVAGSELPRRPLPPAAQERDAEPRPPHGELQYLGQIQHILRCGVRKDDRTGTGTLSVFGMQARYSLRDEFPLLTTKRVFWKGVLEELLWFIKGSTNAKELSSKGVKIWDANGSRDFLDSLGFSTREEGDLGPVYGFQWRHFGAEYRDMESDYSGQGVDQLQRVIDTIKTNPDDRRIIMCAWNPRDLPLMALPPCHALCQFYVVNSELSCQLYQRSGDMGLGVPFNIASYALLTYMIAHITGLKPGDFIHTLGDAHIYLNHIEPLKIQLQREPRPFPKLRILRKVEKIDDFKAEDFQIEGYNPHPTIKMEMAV

As for `Cc1nc2ccc3ccc(CNc4ccc(C(=O)CC(CCC(=O)O)C(=O)O)cc4)cc3c2c(=O)[nH]1` (racemic) [(RS)-2-(2-(4-(((1,2-Dihydro-3-methyl-1-oxobenzo[f]quinazolin-9-yl)methyl)amino)phenyl)-2-oxoethyl)glutaric acid], the IC50 in data set [1] (setting [4]) stood at 0.03 µM. As for `Nc1nc2c3ccccc3c3ccccc3c2c(=O)[nH]1` [2-Aminodibenzo(f,h)quinazolin-4(3H)-one], the IC50 is 4 µM in data set [1] (setting [5]) and 1 to 300 µM in data set [2]. In the same order, the values of `Nc1nc2ccc3c(N)c(Br)ccc3c2c(=O)[nH]1` [3,7-Diamino-8-bromobenzo(f)quinazolin-1(2H)-one] are 20 µM and 1 to 300 µM. In the same order, the values of `Nc1ccc2ccc3nc(N)[nH]c(=O)c3c2c1` [3,9-Diaminobenzo(f)quinazolin-1(2H)-one] are 80 µM and under 1 µM.

As for `Nc1nc2ccc3cc(F)cc(N)c3c2c(=O)[nH]1` [3,10-Diamino-8-fluorobenzo(f)quinazolin-1(2H)-one], the IC50 is 70 µM in data set [1] (setting [5]) and 1 to 300 µM in data set [2].

For `Nc1nc2ccc3ccc(Br)c(N)c3c2c(=O)[nH]1` [3,10-Diamino-9-bromobenzo(f)quinazolin-1(2H)-one], the figures for the IC50 in data set [1] (setting [5]) and in data set [2] were 30 µM and under 1 µM, respectively. `CSc1ccc2c(c1)-c1c(nc(N)[nH]c1=O)CC2` [3-Amino-5,6-dihydro-9-(methylthio)benzo(f)quinazolin-1(2H)-one]: the IC50 at 72 h in data set [3] amounted to 46 µM.

As for `Nc1nc2ccc3c(F)cccc3c2c(=O)[nH]1` [3-Amino-7-fluorobenzo(f)quinazolin-1(2H)-one], the IC50 in data set [1] (setting [5]) was 30 µM; in data set [2], 1 to 300 µM. As for `Nc1nc2ccc3c(I)cccc3c2c(=O)[nH]1` [3-Amino-7-iodobenzo(f)quinazolin-1(2H)-one], the IC50 in data set [1] (setting [5]) is 10 µM; in data set [2], 1 to 300 µM. In the same order, the values of `Nc1nc2ccc3c([N+](=O)[O-])c(Br)ccc3c2c(=O)[nH]1` [3-Amino-8-bromo-7-nitrobenzo(f)quinazolin-1(2H)-one] are 25 µM and 1 to 300 µM. As to `CCN(CC)S(=O)(=O)c1cc2c(cc1Br)CCc1nc(N)[nH]c(=O)c1-2` [3-Amino-8-bromo-N,N-diethyl-1,2,5,6-tetrahydro-1-oxobenzo(f)quinazoline-9-sulfonamide], the IC50 in data set [1] (Homo sapiens, SW480, read-out: Tumor Cell Culture Cytotoxicity IC50 SW480, Table C, 5,6-dihydro 3-amino derivatives) worked out at 7.5 µM.

`CCN(CC)S(=O)(=O)c1cc2c(ccc3nc(N)[nH]c(=O)c32)cc1Br` [3-Amino-8-bromo-N,N-diethyl-1,2-dihydro-1-oxobenzo(f)quinazoline-9-sulfonamide]: the IC50 in data set [1] (setting [5]) is 2.5 µM; in data set [2], 1 to 300 µM.

With `Nc1nc2ccc3cc(F)cc([N+](=O)[O-])c3c2c(=O)[nH]1` [3-Amino-8-fluoro-10-nitrobenzo(f)quinazolin-1(2H)-one], the IC50 was 50 µM in data set [1] (setting [5]) and 1 to 300 µM in data set [2]. In the same order, the values of `Nc1nc2ccc3ccc(Br)c([N+](=O)[O-])c3c2c(=O)[nH]1` [3-Amino-9-bromo-10-nitrobenzo(f)quinazolin-1(2H)-one] are 20 µM and under 1 µM. Regarding `Cc1cc2nc(N)nc(O)c2c2cc(Cl)ccc12` [3-Amino-9-chloro-6-methylbenzo(f)quinazolin-1(2H)-one], the IC50 is 2 µM in data set [1] (setting [5]) and under 1 µM in data set [2]. Take `CCc1ccc2ccc3nc(N)[nH]c(=O)c3c2c1` [3-Amino-9-ethylbenzo(f)quinazolin-1(2H)-one]: the IC50 in data set [1] (setting [5]) was 20 µM; in data set [2] it was under 1 µM. In the same order, the values of `Nc1nc2ccc3ccc(O)cc3c2c(=O)[nH]1` [3-Amino-9-hydroxybenzo(f)quinazolin-1(2H)-one] are 40 µM and under 1 µM. Regarding `Cc1nc2ccc3ccc(CNc4ccc([N+](=O)[O-])cc4)cc3c2c(=O)[nH]1` [3-Methyl-9-((4-nitroanilino)methyl)benzo)(f)quinazolin-1(2H)-one], the IC50 in data set [1] (setting [4]) turned out to be 0.4 µM. As to `Cc1nc2ccc3ccc(CNc4ccccc4)cc3c2c(=O)[nH]1` [3-Methyl-9-(anilinomethyl)benzo(f)quinazolin-1(2H)-one], in data set [1] (setting [4]), the IC50 stood at 7 µM.

Take `Cc1nc2ccc3ccc(Oc4ccc(C#N)cc4)cc3c2c(=O)[nH]1` [4-((1,2-Dihydro-3-methyl-1-oxobenzo[f]quinazolin-9-yl)oxy)benzonitrile]: the IC50 in data set [1] (setting [4]) was over 10 µM. On the same count and under the same terms, the same measure for `Cc1nc2ccc3ccc(CNc4ccc(C#N)cc4)cc3c2c(=O)[nH]1` [4-(((1,2-Dihydro-3-methyl-1-oxobenzo(f)quinazolin-9-yl)methyl)amino)benzonitrile]: 0.03 µM; for `Cc1nc2ccc3ccc(CNc4ccc(C(=O)O)cc4)cc3c2c(=O)[nH]1` [4-(((1,2-Dihydro-3-methyl-1-oxobenzo[f]quinazolin-9-yl)methyl)amino)benzoic acid]: 2.2 µM. In the case of `Cc1nc2c(c(=O)[nH]1)-c1cc(S(=O)(=O)Nc3ccc(F)cc3)ccc1CC2` [4′-Fluoro-1,2,5,6-tetrahydro-3-methyl-1-oxobenzo(f)quinazoline-9-sulfonanilide], in data set [1] (Homo sapiens, SW480, read-out: Tumor Cell Culture Cytotoxicity IC50 SW480, Table D, 5,6-dihydro 3-methyl derivatives), the IC50 came to 25 µM.

For the compound `C#CCN(CC#C)S(=O)(=O)c1ccc2c(c1)CCc1nc(N)[nH]c(=O)c1-2` [8-SO2N-(Propargyl)2, 3-Amino-1,2,5,6-tetrahydro-1-oxo-N,N-bis(prop-2-vnyl)benzo[f]quinazoline-8-sulfonamide], the IC50 in data set [1] (read-out: Tumor Cell Culture Cytotoxicity IC50 SW480, Table C, 5,6-dihydro 3-amino derivatives) was 60 µM. Regarding `Cc1nc2ccc3ccc(/C=C/c4ccc(C(=O)N[C@@H](CCC(=O)O)C(=O)O)cc4)cc3c2c(=O)[nH]1` [(E)-N-(4-(2(1,2-Dihydro-3-methyl-1-oxobenzo[f]quinazolin-9-yl)vinyl)benzoyl)-L-glutamic acid], the IC50 in data set [1] (setting [6]) is over 100 µM. As to `Cc1nc2ccc3ccc(CN(C)c4ccc5c(c4)CN([C@@H](CCC(=O)O)C(=O)O)C5=O)cc3c2c(=O)[nH]1` [(S)-2-(5-(((1,2-Dihydro-3-methyl-1-oxobenzo[f]quinazolin-9-yl)methyl)methylamino)-1-oxo-2-isoindolinyl)glutaric acid], in data set [1] (setting [6]), the IC50 worked out at 0.5 µM.

As for `Cc1nc2ccc3ccc(CNc4ccc5c(=O)n([C@@H](CCC(=O)O)C(=O)O)sc5c4)cc3c2c(=O)[nH]1` [CH3,9-CH2NH, 2′-SNglu, (S)-2-(2.3-Dihydro-6-(((1,2-dihydro-3-methyl-1-oxobenzo[f]quinazolin-9-yl)methyl)amino)-3-oxo-1,2-benxisothiazol-2-yl)glutaric acid], the IC50 in data set [1] (read-out: Cell Culture Cytotoxicity CCCT SW-480, Table F, fully aromatic p-aminobenzoylglutamates) is 2 µM. With `C=Cc1ccc2ccc3nc(N)[nH]c(=O)c3c2c1` [Example 9-Ethenyl, 3-Amino-9-vinylbenzo[f]quinazolin-1(2H)-one], in data set [1] (setting [5]), the IC50 is 6 µM. Consider `Cc1nc2ccc3ccc(CCc4ccc(C(=O)N[C@@H](CCC(=O)O)C(=O)O)cc4)cc3c2c(=O)[nH]1` [N-(4-(2-(1,2-Dihydro-3-methyl-1-oxobenzo[f]quinazolin-9-yl)ethyl)benzoyl)-L-glutamic acid], for which, in data set [1] (setting [6]), the IC50 turned out to be 9 µM.

`Cc1nc2ccc3ccc(S(=O)(=O)Nc4ccc(C(=O)N[C@@H](CCC(=O)O)C(=O)O)cc4)cc3c2c(=O)[nH]1` [N-(4-((1,2-Dihydro-3-methyl-1-oxabenzo(f)quinazolin-9-yl)sulfonamido)benzoyl)-L-glutamic acid] yielded an IC50 in data set [2] of under 1 µM.

Turning to `Cc1nc2ccc3cc(CNc4ccc(C(=O)N[C@@H](CCC(=O)O)C(=O)O)cc4)ccc3c2c(=O)[nH]1` [N-(4-(((1,2-Dihydro-3-methyl-1-oxobenzo[f]quinazolin-8-yl)methyl)amino)benzoyl)-L-glutamic acid], the IC50 in data set [1] (setting [6]) was over 100 µM.

For `C#CCN(c1ccc(C(=O)N[C@@H](CCC(=O)O)C(=O)O)cc1)S(=O)(=O)c1ccc2c(c1)CCc1nc(N)[nH]c(=O)c1-2` [N-(4-(((3-Amino-1,2,5,6-tetrahydro-1-oxobenzo(f)quinazolin-8-yl)sulfonyl)(2-propynyl)amino)benzoyl)-L-glutamic acid], the IC50 in data set [1] (setting [7]) was over 50 µM. Consider `Nc1nc2c(c(=O)[nH]1)-c1ccc(S(=O)(=O)Nc3ccc(C(=O)N[C@@H](CCC(=O)O)C(=O)O)cc3)cc1CC2` [N-(4-(((3-Amino-1,2,5,6-tetrahydro-1-oxobenzo(f)quinazolin-8-yl)sulfonyl)amino)benzoyl)-L-glutamic acid], for which the IC50 in data set [1] (setting [7]) was determined as 25 µM. For the compound `Nc1nc2ccc3ccc(NS(=O)(=O)c4ccc(C(=O)N[C@@H](CCC(=O)O)C(=O)O)cc4)cc3c2c(=O)[nH]1` [N-(4-(((3-Amino-1,2-dihydro-1-oxobenzo(f)quinazolin-9-yl)amino)sulfonyl)benzoyl)-L-glutamic acid], in data set [1] (setting [6]), the IC50 was over 100 µM. Take `Nc1nc2c(c(=O)[nH]1)-c1cc(S(=O)(=O)Nc3ccc(C(=O)N[C@@H](CCC(=O)O)C(=O)O)cc3)c(Br)cc1CC2` [N-(4-(((3-Amino-8-bromo-1,2,5,6-tetrahydro-1-oxobenzo(f)quinazolin-9-yl)sulfonyl)amino)benzoyl)-L-glutamic acid]: the IC50 in data set [1] (setting [7]) was over 50 µM. Same read-out and setting: under `Cc1nc2c(c(=O)[nH]1)-c1cc(S(=O)(=O)N(C)c3ccc(C(=O)N[C@@H](CCC(=O)O)C(=O)O)cc3)ccc1CC2` [N-(4-(Methyl((1,2,5,6-tetrahydro-3-methyl-1-oxobenzo(f)quinazolin-9-yl)sulfonyl)amino)benzoyl)-L-glutamic acid] stands over 50 µM.

In the case of `Cc1nc2ccc3ccc(CNc4ccc(C(=O)N[C@@H](CCC(=O)O)C(=O)O)s4)cc3c2c(=O)[nH]1` [N-((5-(((1,2-Dihydro-3-methyl-1-oxobenzo[f]quinazolin-9-yl)methyl)amino-2-thienyl)carbonyl)-L-glutamic acid], the IC50 in data set [1] (read-out: Tumor Cell Culture Cytotoxicity IC50 SW480, Table E, fully aromatic 3-methyl derivatives) worked out at 0.1 µM.
